In PMC8264055, “Pharmacokinetics of Colistin in the Gastrointestinal Tract of Poultry Following Dosing via Drinking Water and Its Bactericidal Impact on Enteric Escherichia coli” (Frontiers in Veterinary Science, 2021):
Structures can show the parent of a compound that is named as a salt. Positions of bridges follow the written chain, without caps; N, C: chain ends. Non-standard residues stand in square brackets, D forms with d. Residues, ends and D or L forms follow the SMILES beside them. *: point of attachment. X1 = CC[C@H](C)CCCCC(=O)*; Dab = NCC[C@H](N)C(=O)O

What was measured:
[1] = Colistin content in luminal intestinal content (LIC) by UHPLC-MS/MS, non-compartmental PK analysis; format: in vivo, broiler chicken (Gallus gallus domesticus)
From the text: (§1) This study was approved by the Royal Veterinary College ethics and welfare committee. One hundred Ross 308 broiler chicken (Gallus gallus domesticus) were obtained from an approved supplier and housed in the animal welfare barn (AWB) at the Royal Veterinary College. Poultry were group-housed and fed baby chick crumbs (Smallholder Range, Norfolk, UK), a feed free of coccidiostats and designed to feed from hatching to 6–8 weeks, and given free access to water for the duration of the study. At 13 days, six birds were separated and maintained as a control group for the course of the study with the remaining 94 birds constituting the study group. European Pharmacopeia-compliant Meiji Seika Pharma's colistin sulfate (ColiMeiji®, hereafter “colistin”) consisting of a 78.53% (“as is”) mixture of colistin A (polymyxin E1) and colistin B (polymyxin E2), was per certificate of analysis (CoA) supplied by Wyjolab (Chaillac, France). Potency of colistin (as reported by CoA) was 23,558 IU/mg, and dosing was calculated as equivalent colistin base. Colistin was administered via drinking water to the study group at a dose equal to 75,000 IU/kg/day over a period of 3 days. The volume of colistin stock solution (2,000,000 IU/ml) diluted per 3-L drinking bell (Poultry Drinker 3L, Farm & Country Supplies, Alton, Hampshire, UK) was based on the average bird weight and water consumption measured on the day prior to dosing. Actual dose received every 24 h was back calculated based on measured water consumption for that period and bird weights. Birds were housed in a 25-m^2 floor pen with access to 5 × 3-L drinking bells, refreshed every 24 h. Average relative humidity was 44.5% (range: 29–63%) and average temperature 24°C (range: 20–28°C). Birds were provided a 14-h photoperiod aligned with onset of dosing (0 h) at 07:00.
(§2) The study group was sampled at predetermined times pre-dose (0 h), during oral dosing (at 12, 36, and 54 h), at cessation of dosing (72 h), and after dosing (73, 74, 76, 80, 84, 96, 120, and 144 h from the onset of dosing). At each time point, eight birds were sacrificed, except at 12, 36, and 54 h where only six birds were sacrificed. After neck dislocation, cloacal swabs were immediately taken, and the whole small intestine was excised after placing three ligatures (one around the duodenum, one on the ileum just proximally to the cecal attachment, and one distally to include the large intestine). All samples were stored at 4°C for no more than 48 h prior to further analysis. All birds in the control group underwent cloacal sampling at matching time points.
Each intestinal specimen was individually processed with a new set of examination gloves and blades to avoid carry over or contamination. The ceca were separated from the small intestine by cutting off the ileum proximally to the ligature. The luminal intestinal content (LIC) was then evacuated through peristaltic massage of the small intestine in a proximal-to-distal direction. Extracted LIC was mixed to ensure a homogenous sample, and 200 mg (±2 mg) aliquots were separated for further testing. Parietal intestinal content (PIC) was collected following LIC; the intestine was inflated with air, straightened, and longitudinally incised with a scalpel blade no. 11. The opened intestine was flattened, and the blade was used to scrape the parietal lining of the intestine. Luminal cecal content (LCC) was extracted in a similar fashion following incision at one end. Aliquots for colistin quantification were stored at −80°C or at 4°C for bacterial enumeration and isolation.
Total colistin content was quantified using a novel ultra-high-performance liquid chromatography-tandem mass spectrometry (UHPLC-MS/MS) method. […]

[2] = tested on: enteric E. coli; experiment: Enumeration of E. coli in luminal intestinal content on UriSelect 4 agar during and after colistin treatment; format: in vivo, Escherichia coli
From the text: as §1
as §2, with “All birds in the control group underwent cloacal sampling at matching time points.” left out
UriSelect 4™ agar (Bio-Rad, Watford, UK) plates were used for enumeration and isolation of E. coli from LIC. […] Bacterial counts in original LIC were back calculated based on the total number of colonies countable on UriSelect 4™ agar. […]

[3] = LIC, nominal dose 75,000 IU/kg/day, NCA sparse option, 6 to 8 birds per time point
[4] = nominal dose 75,000 IU/kg/day via drinking water, from partial AUC, NCA sparse option
[5] = during dosing, 75,000 IU/kg/day via drinking water, n = 6, median baseline 3.6 × 10^6 CFU/g

CC[C@H](C)CCCCC(=O)N[C@@H](CCN)C(=O)N[C@H](C(=O)N[C@@H](CCN)C(=O)N[C@H]1CCNC(=O)[C@H]([C@@H](C)O)NC(=O)[C@H](CCN)NC(=O)[C@H](CCN)NC(=O)[C@H](CC(C)C)NC(=O)[C@@H](CC(C)C)NC(=O)[C@H](CCN)NC1=O)[C@@H](C)O [colistin, colistin sulfate] (X1-[Dab]T[Dab][Dab][Dab][dL]L[Dab][Dab]T; lactam 4-C)
Partial AUC, AUC0-24h (first day) [1, 3]: 54.1 mg·h/kg
Partial AUC, AUC24-48h (second day) [1, 3]: 75.5 mg·h/kg
Partial AUC, AUC48-72h (third day) [1, 3]: 112.6 mg·h/kg
tissue level at time at 72 h ([1]; Ross 308 broiler, luminal intestinal content (LIC), po, 75000 IU/kg/day, 75,000 IU/kg/day via drinking water for 72 h, 72 h, mean of n = 8 birds, read-out: mean colistin content in LIC at cessation of dosing): 4510 ng/g
mean colistin content in LIC, peak ([1]; broiler chickens, colistin sulfate 75,000 IU/kg/day via drinking water for 72 h, 54 h from onset of dosing, mean of n = 6 birds, UHPLC-MS/MS, LOQ 1.1 mg/kg): 5.09 mg/kg
Average colistin luminal intestinal content, 0-48 h (first and second day) [1, 4]: 2.70 mg/kg digesta
Average colistin luminal intestinal content, 24-48 h (second day) [1, 4]: 3.15 mg/kg digesta
median E. coli count in LIC at 96, 120 and 144 h ([2]; after dosing, to end of the experiment, n = 8 per time point): ~5 × 10^5
median E. coli count in LIC at 36 h [2, 5]: 3.9 × 10^3 CFU/g
median E. coli count in LIC at 54 h [2, 5]: 1.56 × 10^4 CFU/g
log reduction in the number of E. coli ([2]; up to 36 h post-onset of colistin administration): > 3 log
